This is an account of results in patent publication US8871728B2, “Non-peptide macrocyclic histone deacetylese (HDAC) inhibitors and methods of making and using thereof” (Georgia Tech Research Corporation, priority 2007, dated 2014).

What is called inhibition is the relative decrease from the control value, in per cent.

Experiment [1] has as its target T1, HDAC8 (Homo sapiens (Human), UniProt Q9BY41). Briefly: Fluor de Lys HDAC8 inhibition. Particulars: average of three independent experiments; Table 4; read-out: HDAC 8. Type of experiment: biochemical.
The test system of experiment [2] is HeLa nuclear extract HDAC1/2. Kind of experiment: Fluor de Lys HDAC inhibition, HeLa nuclear extract. Type of experiment: biochemical, human. Conditions: HeLa nuclear extract; average of three independent experiments; Table 4; read-out: HDAC ½. The text has this:
Fluor de Lys™ is a fluorescence based HDAC activity assay comprising a combination of fluorogenic Histone deAcetylase Lysyl substrate and a developer. The kit is a highly sensitive and convenient alternative to radiolabeled, acetylated histones or peptide/HPLC methods for the assay of histone deacetylases. This assay is based on the ability of HeLa nuclear extract, which is enriched in HDAC activity, to mediate the deacetylation of the acetylated lysine side chain of the Fluor de Lys substrate. The assay procedure requires two steps. First, incubation of the HeLa nuclear extract with the Fluor de Lys substrate results in substrate deacetylation and thus sensitizes it to the second step. In the second step, treatment of the deacetylated substrate with the Fluor de Lys developer produces a fluorophore. The substrate-developer reaction, under normal circumstances goes to completion in less than 1 min at 25° C. The kit used was the Fluorimetric Assay/Drug Discovery Kit—AK-500 Manual Fluorescent Assay System available from BIOMOL® International, Plymouth Meeting, Pa.
Each IC50 value was obtained by averaging three independent experiments.

In experiment [3] the target is HDAC1 (Homo sapiens (Human), UniProt Q13547). Kind of experiment: SAMDI mass spectrometry HDAC inhibition assay. Type of experiment: biochemical. Conditions: for inhibition at 10 µM: given if the IC50 was above 10 μM. The method, then: (§1) There is precedence that fluorescently labeled substrates can perturb enzyme activity and the effect of inhibitors. […] Additionally, 3-hydroxypyridine-2-ones are highly colored solids and might lead to false positive signals. Mindful of these facts, a label-free SAMDI (self-assembled monolayers for MALDI) mass spectrometry assay was also used to assess HDAC inhibition.
Sequence of HDAC1 (Q13547 whole entry): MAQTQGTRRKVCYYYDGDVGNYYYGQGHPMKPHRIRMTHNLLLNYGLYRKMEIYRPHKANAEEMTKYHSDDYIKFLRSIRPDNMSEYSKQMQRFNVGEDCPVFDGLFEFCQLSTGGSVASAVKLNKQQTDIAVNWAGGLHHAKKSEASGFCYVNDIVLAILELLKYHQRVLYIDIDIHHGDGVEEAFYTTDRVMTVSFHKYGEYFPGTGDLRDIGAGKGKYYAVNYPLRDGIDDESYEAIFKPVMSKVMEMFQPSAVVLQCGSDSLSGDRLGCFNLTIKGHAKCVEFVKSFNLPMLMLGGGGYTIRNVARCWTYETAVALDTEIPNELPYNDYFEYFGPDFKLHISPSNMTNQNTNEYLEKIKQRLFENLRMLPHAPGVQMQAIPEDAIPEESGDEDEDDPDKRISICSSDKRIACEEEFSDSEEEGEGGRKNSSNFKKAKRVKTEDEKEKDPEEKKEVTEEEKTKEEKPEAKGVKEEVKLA
(§2) The SAMDI technique, wherein self-assembled monolayers (SAM) of alkanethiolates on gold are analyzed by matrix assisted laser desorption/ionization (MALDI) mass spectrometry, has been widely used to characterize many biochemical activities, including the deacetylase enzyme family.

Experiment [4] deals with T1, HDAC8. Kind of experiment: SAMDI mass spectrometry HDAC inhibition assay. Conditions: for inhibition at 10 µM: given if the IC50 was above 10 μM. Type of experiment: biochemical. The method, then: as §1, §2
In experiment [5] the target is HDAC6 (Homo sapiens (Human), UniProt Q9UBN7). Briefly: SAMDI mass spectrometry HDAC inhibition assay. Type of experiment: biochemical. Conditions: for IC50: read-out: HDAC6 IC50. The procedure: as §1
Sequence of HDAC6 (Q9UBN7 whole entry, the tested form may be a part): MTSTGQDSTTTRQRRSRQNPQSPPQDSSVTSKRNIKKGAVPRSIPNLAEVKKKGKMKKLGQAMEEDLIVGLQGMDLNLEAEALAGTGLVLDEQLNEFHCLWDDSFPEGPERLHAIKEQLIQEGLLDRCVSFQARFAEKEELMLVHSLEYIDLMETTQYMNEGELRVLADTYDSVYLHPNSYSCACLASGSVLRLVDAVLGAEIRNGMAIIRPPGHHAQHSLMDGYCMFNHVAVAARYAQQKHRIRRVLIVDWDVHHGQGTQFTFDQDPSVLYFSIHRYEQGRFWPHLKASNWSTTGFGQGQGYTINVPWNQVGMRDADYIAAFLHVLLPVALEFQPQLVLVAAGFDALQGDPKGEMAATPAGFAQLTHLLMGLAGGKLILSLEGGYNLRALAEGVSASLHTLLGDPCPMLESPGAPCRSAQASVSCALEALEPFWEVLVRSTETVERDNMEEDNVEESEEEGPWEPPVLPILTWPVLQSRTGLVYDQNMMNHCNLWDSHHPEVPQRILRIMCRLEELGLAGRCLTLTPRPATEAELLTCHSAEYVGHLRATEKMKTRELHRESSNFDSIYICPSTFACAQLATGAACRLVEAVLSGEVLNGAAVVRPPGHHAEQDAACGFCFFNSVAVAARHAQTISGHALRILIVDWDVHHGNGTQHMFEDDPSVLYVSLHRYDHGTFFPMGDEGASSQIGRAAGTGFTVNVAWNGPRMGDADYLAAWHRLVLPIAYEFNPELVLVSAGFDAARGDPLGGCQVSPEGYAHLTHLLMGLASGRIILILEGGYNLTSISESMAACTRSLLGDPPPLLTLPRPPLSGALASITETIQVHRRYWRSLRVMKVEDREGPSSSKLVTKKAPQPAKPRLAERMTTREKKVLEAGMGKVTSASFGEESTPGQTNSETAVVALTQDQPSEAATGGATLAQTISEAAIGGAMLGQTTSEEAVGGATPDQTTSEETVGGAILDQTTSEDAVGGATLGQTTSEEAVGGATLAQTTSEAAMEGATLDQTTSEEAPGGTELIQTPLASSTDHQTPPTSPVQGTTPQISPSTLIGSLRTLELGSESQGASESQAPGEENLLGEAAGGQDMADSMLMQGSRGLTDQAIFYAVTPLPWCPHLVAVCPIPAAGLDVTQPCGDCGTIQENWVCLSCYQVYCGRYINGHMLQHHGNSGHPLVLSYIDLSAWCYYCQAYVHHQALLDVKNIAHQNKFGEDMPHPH
The SAMDI technique, wherein self-assembled monolayers (SAM) of alkanethiolates on gold are analyzed by matrix assisted laser desorption/ionization (MALDI) mass spectrometry, has been widely used to characterize many biochemical activities, including the deacetylase enzyme family. The SAMDI assay was used to measure the inhibition constant (K1) of fragments against HDAC1, HDAC6 and HDAC8 using a previously identified preferred HDAC substrate.

T1 sequence (Q9BY41 whole entry): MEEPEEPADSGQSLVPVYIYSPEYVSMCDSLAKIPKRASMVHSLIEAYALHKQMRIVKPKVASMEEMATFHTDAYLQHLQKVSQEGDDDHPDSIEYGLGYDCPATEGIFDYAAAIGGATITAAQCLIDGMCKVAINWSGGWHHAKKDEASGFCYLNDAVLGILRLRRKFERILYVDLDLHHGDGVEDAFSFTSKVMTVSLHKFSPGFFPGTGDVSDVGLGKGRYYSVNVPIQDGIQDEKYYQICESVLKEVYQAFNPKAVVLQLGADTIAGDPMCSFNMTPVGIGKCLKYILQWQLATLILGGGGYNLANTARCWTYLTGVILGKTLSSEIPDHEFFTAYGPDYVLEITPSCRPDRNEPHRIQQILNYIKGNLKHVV

With `CC[C@H]1OC(=O)[C@H](C)[C@@H](O)[C@H](C)[C@@H](O[C@@H]2O[C@H](C)C[C@H](N(C)Cc3ccc(NC(=O)CCCCCCC(=O)NO)cc3)[C@H]2O)[C@](C)(O)C[C@@H](C)CN(C)[C@H](C)[C@@H](O)[C@]1(C)O` [Compound 38, Desclasinose-azithromycin-arylalkyl hydroxamic acid], the IC50 in experiment [1] came out at 2.32 µM; in experiment [2] it was 110 nM.
`O=c1[nH]cccc1O` [3-hydroxypyridine-2-one, reference compound]: in experiment [3] (SAMDI), the “HDAC1 inhibition in words” value is “inactive” and the “HDAC1 inhibition, symbol” value is listed as “NI (No significant Inhibition (below 20% Inhibition))”. For the same molecule, in experiment [4] (SAMDI), the “HDAC8 inhibition in words” value was “inactive” and the “HDAC8 inhibition, symbol” value was “NI (No significant Inhibition (below 20% Inhibition))”. In experiment [5] (SAMDI), the “HDAC6 inhibition in words” value is “inactive” and the “HDAC6 inhibition, symbol” value is “NI (No significant Inhibition (below 20% Inhibition))”.
`Cc1cccc(-c2ccc(Cn3cccc(O)c3=O)cc2)c1` [Compound 148e, 1-(3-Methyl-(1,1′-biphenylmethyl))-3-hydroxyoxypyridine-2-one]: the “HDAC1 inhibition, symbol” value in experiment [3] (SAMDI) is “NI (No significant Inhibition (below 20% Inhibition))”. Also, in experiment [4] (SAMDI), the “HDAC8 inhibition, symbol” value was “NI (No significant Inhibition (below 20% Inhibition))”. In addition, the “HDAC6 inhibition, symbol” value in experiment [5] (SAMDI) was “NI (No significant Inhibition (below 20% Inhibition))”.
As to `Oc1cccn(Cc2ccc(-c3ccncc3)cc2)c1=S` [Compound 149i, 1-(4-(Pyridin-4-yl)benzyl)-3-hydroxypyridine-2-thione], in experiment [3] (SAMDI), the “HDAC1 inhibition, symbol” value is on record as “NI (No significant Inhibition (below 20% Inhibition))”. In addition, the IC50 in experiment [4] (SAMDI, read-out: HDAC8 IC50) is 2780 ± 323 nM; in experiment [5] (SAMDI), 2200 ± 355 nM.
With `N#Cc1ccc(-c2cn(CCCCCn3cccc(O)c3=S)nn2)cc1` [Compound 167d, 1-(4-Benzonitrile)triazolylpentyl-3-hydroxypyridine-2-thione], 10 µM produced 33% inhibition in experiment [3]. Also, the IC50 came out at 1460 nM in experiment [4] (SAMDI, read-out: HDAC8 IC50) and 905 ± 249 nM in experiment [5] (SAMDI).
With `N#Cc1ccc(-c2cn(CCCCCn3cccc(O)c3=O)nn2)cc1C(F)(F)F` [Compound 166g, 1-(4-(3-Trifluomethyl)-benzonitrile)triazolylpentyl-3-hydroxypyridine-2-one], the inhibition at 10 µM is 71% in experiment [3] and 14% in experiment [4]. Moreover, in experiment [5] (SAMDI), the “HDAC6 inhibition, symbol” value is “NI (No significant Inhibition (below 20% Inhibition))”.
For the molecule `O=c1c(O)cccn1Cc1ccccc1` [Compound 142b, 1-Benzyl-3-hydroxypyridine-2-one], the “HDAC1 inhibition, symbol” value in experiment [3] (SAMDI) was “NI (No significant Inhibition (below 20% Inhibition))”. This molecule showed an inhibition at 10 µM in experiment [4] of 8%. Further, the “HDAC6 inhibition, symbol” value in experiment [5] (SAMDI) is reported as “NI (No significant Inhibition (below 20% Inhibition))”.
Regarding `CC[C@H]1OC(=O)[C@H](C)[C@@H](O[C@H]2C[C@@](C)(OC)[C@@H](O)[C@H](C)O2)[C@H](C)[C@@H](O[C@@H]2O[C@H](C)C[C@H](N(C)Cc3ccc(-c4cn(CCCCCCCCCC(=O)NO)nn4)cc3)[C@H]2O)[C@](C)(OC)C[C@@H](C)C(=O)[C@H](C)[C@@H](O)[C@]1(C)O` [Compound 30, Clarithromycin-N-Phenyltriazolyldecahydroxamic acid], the IC50 in experiment [2] was 223 nM.
As for `CN(C)c1ccc(-n2cc(Cn3cccc(O)c3=O)nn2)cc1` [Compound 152b, 1-(4-Dimethylamino)phenylltriazolylmethyl-3-hydroxypyridine-2-one], the “HDAC1 inhibition, symbol” value in experiment [3] (SAMDI) is “NI (No significant Inhibition (below 20% Inhibition))”. Besides, 10 µM produced 8% inhibition in experiment [4]. Also, the “HDAC6 inhibition, symbol” value in experiment [5] (SAMDI) is recorded as “NI (No significant Inhibition (below 20% Inhibition))”.
As to `CN(C)c1ccc(-c2ccc(Cn3cccc(O)c3=O)cc2)cn1` [Compound 148h], in experiment [3] (SAMDI), the “HDAC1 inhibition, symbol” value was “NI (No significant Inhibition (below 20% Inhibition))”. The molecule also yielded an inhibition at 10 µM in experiment [4] of 37%. The “HDAC6 inhibition, symbol” value in experiment [5] (SAMDI) was “NI (No significant Inhibition (below 20% Inhibition))”.
As to `Cc1cccc(-c2ccc(Cn3cccc(O)c3=S)cc2)c1` [Compound 149e, 1-(3-Methyl-(1,1′-biphenylmethyl))-3-hydroxyoxypyridine-2-thione], the “HDAC1 inhibition, symbol” value in experiment [3] (SAMDI) was “NI (No significant Inhibition (below 20% Inhibition))”. The IC50 in experiment [4] (SAMDI, read-out: HDAC8 IC50) worked out at 2500 ± 1180 nM; in experiment [5] (SAMDI) it was 812 ± 286 nM.
With `N#Cc1ccc(-c2ccc(Cn3cccc(O)c3=S)cc2)cc1` [Compound 149a, 1-(4-Cyano-(1,1′-biphenylmethyl))-3-hydroxyoxypyridine-2-thione], the “HDAC1 inhibition, symbol” value in experiment [3] (SAMDI) is “NI (No significant Inhibition (below 20% Inhibition))”. Besides, the IC50 was 2080 ± 459 nM in experiment [4] (SAMDI, read-out: HDAC8 IC50); around 2000 nM in experiment [4] (SAMDI, read-out: HDAC8 activity (IC50)); 957 ± 159 nM in experiment [5] (SAMDI).
Regarding `Cc1ccc(-c2cn(CCCCCn3cccc(O)c3=O)nn2)cc1` [Compound 166a, 1-(4-Tolyl)triazolylpentyl-3-hydroxypyridine-2-one], the inhibition at 10 µM in experiment [3] worked out at 66%; in experiment [4] it was 15%. Besides, the “HDAC6 inhibition, symbol” value in experiment [5] (SAMDI) is recorded as “NI (No significant Inhibition (below 20% Inhibition))”.
In turn, `N#Cc1cccc(-c2cn(CCCCCn3cccc(O)c3=O)nn2)c1` [Compound 166e, 1-(3-Benzonitrile)triazolylpentyl-3-hydroxypyridine-2-one] came in with an inhibition at 10 µM in experiment [3] of 71%. For the same molecule, the “HDAC8 inhibition, symbol” value in experiment [4] (SAMDI) is reported as “NI (No significant Inhibition (below 20% Inhibition))”. Further, in experiment [5] (SAMDI), the “HDAC6 inhibition, symbol” value was “NI (No significant Inhibition (below 20% Inhibition))”.
As for `Cc1ccc(-c2ccc(Cn3cccc(O)c3=O)cc2)cc1` [Compound 148d, 1-(4-Methyl-(1,1′-biphenylmethyl))-3-hydroxyoxypyridine-2-one], in experiment [3] (SAMDI), the “HDAC1 inhibition, symbol” value was “NI (No significant Inhibition (below 20% Inhibition))”. In experiment [4], this molecule displayed an inhibition at 10 µM of 25%. The “HDAC6 inhibition, symbol” value in experiment [5] (SAMDI) is on record as “NI (No significant Inhibition (below 20% Inhibition))”.
On to `Cc1cccc(-c2cn(CCCCCn3cccc(O)c3=O)nn2)c1` [Compound 166b, 1-(3-Tolyl)triazolylpentyl-3-hydroxypyridine-2-one], for which testing at 10 µM in experiment [3] gave an inhibition of 88%. The “HDAC8 inhibition, symbol” value in experiment [4] (SAMDI) is given as “NI (No significant Inhibition (below 20% Inhibition))”. Besides, the “HDAC6 inhibition, symbol” value in experiment [5] (SAMDI) is recorded as “NI (No significant Inhibition (below 20% Inhibition))”.
In the case of `CC[C@H]1OC(=O)[C@H](C)[C@@H](O[C@H]2C[C@@](C)(OC)[C@@H](O)[C@H](C)O2)[C@H](C)[C@@H](O[C@@H]2O[C@H](C)C[C@H](N(C)Cc3ccc(NC(=O)CCCCCCC(=O)NO)cc3)[C@H]2O)[C@](C)(O)C[C@@H](C)CN(C)[C@H](C)[C@@H](O)[C@]1(C)O` [Compound 36, Azithromycin-arylalkyl hydroxamic acid], the figures for the IC50 in experiment [1] and in experiment [2] were 6.68 µM and 107 nM, respectively.
Regarding `O=c1c(O)cccn1Cc1ccc(-c2ccncc2)cc1` [Compound 148i, 1-(4-(Pyridine-4-yl)benzyl)-3-hydroxypyridine-2-one], the “HDAC1 inhibition, symbol” value in experiment [3] (SAMDI) was “NI (No significant Inhibition (below 20% Inhibition))”. The molecule further yielded an inhibition at 10 µM in experiment [4] of 16%. For the same molecule, in experiment [5] (SAMDI), the “HDAC6 inhibition, symbol” value was “NI (No significant Inhibition (below 20% Inhibition))”.
Consider `Oc1cccn(Cc2ccccc2)c1=S` [Compound 144b, 1-Benzyl-3-hydroxypyridine-2-thione], for which the “HDAC1 inhibition, symbol” value in experiment [3] (SAMDI) was “NI (No significant Inhibition (below 20% Inhibition))”. The “HDAC8 activity, fold superior compared to 144e” value in experiment [4] (SAMDI) amounted to 2 fold. Further, the IC50 was 1270 ± 200 nM in experiment [4] (SAMDI, read-out: HDAC8 IC50) and 457 ± 27 nM in experiment [5] (SAMDI).
Consider `N#Cc1ccccc1-c1ccc(Cn2cccc(O)c2=O)cc1` [Compound 148c, 1-(2-Cyano-(1,1′-biphenylmethyl))-3-hydroxyoxypyridine-2-one], for which the “HDAC1 inhibition, symbol” value in experiment [3] (SAMDI) was “NI (No significant Inhibition (below 20% Inhibition))”. The results for the inhibition at 10 µM in experiment [4] and in experiment [5] (read-out: HDAC6 % inhibition) were 9% and 5%, respectively.
